US9096543B2, “Nuclear transport modulators and uses thereof” (Karyopharm Therapeutics Inc., priority 2012, dated 2015)

Legend:
[1] = Brain to plasma ratio (B:P) in rats; type: in vivo; details: 10 mg/kg po
Description: Brain tissue following collection was rinsed with cold saline, dried on filter paper, weighed and snap-frozen by placing on dry ice. All samples were stored frozen at approximately −80° C. until analysis. […] Plasma samples were treated with the identical method (except homogenization step) and concentration of compound in either matrix was calculated based on the generated standard curves.

[2] = Pharmacokinetics (plasma AUC) in rats; type: in vivo; details: rat, 10 mg/kg po
CRM1 = target: T1, CRM1 (Homo sapiens, UniProt O14980); assay: RevGFP assay: inhibition of CRM1 mediated nuclear export; type: cell-based; details: U2OS-RevGFP cells, ~1 hr with compound; read-out: Rev Export [IC50]
T1 construct: endogenous in cells; host or cells: U2OS-RevGFP cells
T1 sequence (O14980 whole entry): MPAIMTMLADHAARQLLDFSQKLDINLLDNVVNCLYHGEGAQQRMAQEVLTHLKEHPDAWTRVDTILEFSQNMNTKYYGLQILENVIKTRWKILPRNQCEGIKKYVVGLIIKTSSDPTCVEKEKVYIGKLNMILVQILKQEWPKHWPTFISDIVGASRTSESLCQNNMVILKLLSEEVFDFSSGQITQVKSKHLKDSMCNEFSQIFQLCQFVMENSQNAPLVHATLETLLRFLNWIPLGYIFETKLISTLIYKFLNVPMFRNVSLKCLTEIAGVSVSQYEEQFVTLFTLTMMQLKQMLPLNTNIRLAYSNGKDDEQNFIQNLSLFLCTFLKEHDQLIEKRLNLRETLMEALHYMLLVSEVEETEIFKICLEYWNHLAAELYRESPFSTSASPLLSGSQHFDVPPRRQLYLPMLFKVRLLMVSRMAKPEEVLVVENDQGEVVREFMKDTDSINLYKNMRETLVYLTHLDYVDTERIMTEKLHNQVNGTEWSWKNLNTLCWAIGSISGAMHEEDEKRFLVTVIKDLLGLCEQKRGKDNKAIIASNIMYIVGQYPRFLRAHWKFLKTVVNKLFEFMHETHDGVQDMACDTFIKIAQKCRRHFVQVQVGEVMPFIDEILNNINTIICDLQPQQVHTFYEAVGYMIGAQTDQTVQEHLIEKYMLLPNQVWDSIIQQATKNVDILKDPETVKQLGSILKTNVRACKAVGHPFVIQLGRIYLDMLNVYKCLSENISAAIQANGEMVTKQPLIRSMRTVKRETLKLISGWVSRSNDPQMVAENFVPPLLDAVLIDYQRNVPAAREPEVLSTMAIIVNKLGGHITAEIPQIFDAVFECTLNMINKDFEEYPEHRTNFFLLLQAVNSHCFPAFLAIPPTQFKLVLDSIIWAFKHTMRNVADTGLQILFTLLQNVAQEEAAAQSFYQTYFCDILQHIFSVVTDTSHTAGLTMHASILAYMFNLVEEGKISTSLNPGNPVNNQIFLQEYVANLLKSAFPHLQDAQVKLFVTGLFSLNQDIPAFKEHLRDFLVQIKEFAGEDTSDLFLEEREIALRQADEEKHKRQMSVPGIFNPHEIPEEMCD
Description: The inhibition of CRM1 mediated nuclear export by compounds of the invention was determined. The inhibitory activity of compounds for the CRM1 protein was determined in the RevGFP assay.
Experimental protocol: Rev is a protein from human immunodeficiency virus type 1 (HIV-1) and contains a nuclear export signal (NES) in its C-terminal domain and a nuclear localization signal (NLS) in its N-terminal domain. Nuclear export of Rev protein is dependent on the classical NES/CRM1 pathway (Neville et al, 1997, Kau et al, 2003). Nuclear accumulation of Rev is observed in cells treated with specific inhibitors of CRM1, such as LMB (Kau et al, 2003). In this assay, U2OS-RevGFP cells are seeded onto clear-bottom, black, 384-well plates the day before the experiment. Compounds are serially diluted 1:2 starting from 40 μM in a separate 384-well plate in DMEM, and then transferred onto cells. Cells are incubated with compound for ˜1 hr before fixation with 3.7% formaldehyde and nuclei staining with Hoechst 33258. The amount of GFP in cell nuclei was measured and compound IC50s were determined (Kau et al, 2003).

[3] = MTT Cell Proliferation Assay (CellTiter 96 AQueous One Solution, MTS); type: cell-based; details: human; 72 h treatment; cell line not given; read-out: Cytotoxicity [IC50]
Text: The CellTiter 96® AQueous One Solution cell proliferation assay (Promega) was used on MM1.S, Jurkat and HCT-116 cells to study the cytotoxic and cytostatic properties of the compounds. The assay is based on the cleavage of the tetrazolium salt, MTS, in the presence of an electron-coupling reagent PES (phenazine ethosulfate). The MTS tetrazolium compound is bioreduced by cells into a colored formazan product that is soluble in tissue culture medium. This conversion is presumably accomplished by NADPH or NADH produced by dehydrogenase enzymes in metabolically active cells. Assays are performed by adding a small amount of the CellTiter 96® AQueous One solution reagent directly to culture wells, incubating for 1-4 hours and then recording the absorbance at 490 nm with a 96-well plate reader. […] The cells were seeded at 5×10^3 to 1.5×10^4 cells (depending on cell type) in each well of 96-well plate in 100 μL of fresh culture medium and adherent cells were allowed to attach for overnight. The stock solutions of the compounds were diluted in cell culture medium to obtain eight concentrations of each drug, ranging from 1 nM to 30 μM and DMSO at less than 1% v/v was used as a negative control. After 72 h of treatment 20 μl of CellTiter 96® AQueous reagent was added into each well of the 96-well assay plates and the plate was incubate at 37° C. for 1-4 hours in a humidified, 5% CO2 atmosphere. Then the absorbance of each well was recorded at 490 nm by using a 96-well plate reader. In most cases the assay was performed in triplicates and the results were presented as half maximal inhibitory concentration (IC50) described below. Optical density versus compound concentration was plotted and analyzed using non linear regression equations (Excel Fit) and the IC50 for each compound was calculated.

[4] = Pharmacokinetics (plasma AUC) in mice; type: in vivo; details: mouse, 10 mg/kg po
Description: Blood was collected from mice (N=3) to contribute to the total of 10 time points (pre-dose, 5 min, 15 min, 30 min, 1 hour, 2 hours, 4 hours, 8 hours, 12 hours and 24 hours post dose). Mice were bled on a rotating basis, each mouse contributing 3 time points to the blood collection. At the designated time points, animals were anaesthetized under isoflurane, and approximately 110 μL of blood per time point was collected via retro-orbital puncture into pre-cooled K2EDTA (anti-coagulant) tubes. Blood samples were put on wet ice and centrifuged (2000 g, 5 min at 4° C.) to obtain plasma within 30 minutes of sample collection. All samples were stored frozen at approximately −80° C. until analysis. Prior to analysis, samples were mixed with internal standard (dexamethasone) in acetonitrile, vortexed, centrifuged, and supernatant was injected for analysis. Concentration of compounds in plasma was determined using LC-MS-MS instrumentation (API 4000, Triple Quadruple with electrospray ionization; Acuity Ultra Performance Liquid Chromatography column C18, with MeOH and formic acid as organic solvents). PK parameters including but not limited to Tmax, Cmax, t1/2, AUClast, AUCinf were calculated using WinNonlin Professional 6.2 software package, non-compartmental pharmacokinetic model NCA200.

IMQ-induced psoriasis = assay: Imiquimod (IMQ)-induced dermal inflammation/psoriasis model (Study 2); type: in vivo, BALB/c mice; details: Compound 2 2.5 mg/kg sc, cyclophosphamide 10 mg/kg oral
Description: Forty (40) male BALB/c mice (Biological E Limited, Hyderabad (CPCSEA registration number: 36/99/CPCSEA)) were divided into four (4) groups consisting of ten (10) mice each. Animals were randomized based on their body weight. The groups were designated as Group-I (Nave), Group-II (IMQ; vehicle (PEG 400 and HPBCD)), Group-III (IMQ; Compound 2 (2.5 mg/kg)) and […] (IMQ; cyclophosphamide (10 mg/kg)).
A small area on the dorsum of each mouse was shaved, ensuring that these areas were of equal size/area. Psoriasis was induced in Groups II to IV by topical application of 50 mg of IMQ cream daily from Day 1 to Day 6 on the dorsum of the animals. On Day 1 and Day 2 of the study, four hours after topical application of IMQ, Compound 2 or positive control (cyclophosphamide) or vehicle were administered to animals in pertinent groups. Of note, animals in Group II and Group III were subjected to subcutaneous injections, whereas animals in Group IV received oral administration. The Compound 2, vehicle and cyclophosphamide treatment was terminated on Day 2. These groups of animals were maintained on daily IMQ treatments until Day 6. On Day 7, the psoriasis-induced animals were re-randomized into 3 groups consisting of 10 animals each based on Cumulative Disease Activity Index (CDAI). From Day 7 to Day 9, animals received vehicle or positive control or Compound 2. Of note, on these days animals were not treated with IMQ. From Day 10 to Day 14, the animals were treated alternatively with IMQ (Days 10, 12 and 14), or vehicle, positive control or Compound 2 (Days 11, 13).
All animals were observed daily for a period of […] for gross observations, body weight and feed and water intake. On Days 1 and 2, scorings of erythema, scaling, folding and thickening of skin were recorded 2 hours after administration of vehicle/positive control/test compounds, and on Days 3 to 14 scorings were recorded 4 hours after IMQ application, or administration of positive control, vehicle or Compound 2.
Vehicle was prepared by dissolving 40 mg of HPBCD in 70.0 mL of distilled water. Compound 2 was prepared by dissolving 3.59 mg in 0.5% PVP and 0.5% Pluronic. Cyclophosphamide was prepared by dissolving 500 mg of CMC in 100 mL distilled water.
The experimental results shown in Table 10 are expressed as mean±SEM. Data was assessed using one-way ANOVA, and post hoc analysis was performed using Dunnett's test.

A549 xenograft tumors = assay: A549 lung carcinoma xenograft model; type: in vivo, CB-17 SCID mice; details: cisplatin 5 mg/kg IP (positive control)
Description: The A549 cell line was derived from explant culture of alveolar carcinoma tissue from a person. The cells were grown in Ham's F12-K tissue culture media with 10% fetal calf serum and 1% penicillin/streptomycin. Cells were routinely trypsinized and passaged 1:10. Thirty-two (32) female CB-17 SCID mice (Charles River Labs strain code 236), aged 5 to 6 weeks were used with a mean pre-treatment body weight of 16.3 grams. Mice were divided into four (4) groups of eight (8) prior to the initiation of treatment based on tumor volume. On the day of implantation, cells were washed in PBS, trypsinized and resuspended in complete media to a density of 2×10^7 cells/mL prior to being mixed with an equal volume of Matrigel. This mixture was then inoculated subcutaneously into mice in a volume of 0.1 mL using a 23 G needle.
Animal weights and condition were recorded daily, and tumors were measured on Mondays, Wednesdays and Fridays with micro-calipers, and tumor volume was calculated as (length×width×width)/2.
Animals with weight loss of more than 20% of their starting weight were euthanized. Mice with weight loss of more than 15% of their starting weight were not treated again until weight loss recovered to less than 5% of their starting weight. Any animals with a tumor volume of more than 1500 mm^3 were euthanized.
Dosing solutions were prepared fresh on each day of dosing. Compound 2 was supplied as a lyophilized powder containing 69.61% Compound 2 with the balance made up of Pluronic F-68 and PVP K29/32. This was prepared by dissolving the lyophilized powder in sterile water. Cisplatin was dissolved at 5 mg/mL in DMSO and diluted 1:10 in sterile water for injection. All test articles were administered in a volume of 0.1 mL/10 g body weight.
Statistical differences between treatment groups were determined using Mann-Whitney Rank Sum or ANOVA tests with a critical value of 0.05.

## CC(C)OC(=O)/C=C\n1cnc(-c2cc(OC(C)C)cc(C(F)(F)F)c2)n1 [Compound X-2]
[1]
  B:P: moderate brain to plasma ratio
[1]; rat, brain and plasma
  Kp at 2 h: 1.27
[2]
  AUC(0-inf): 68.3 ng·h/mL
CRM1
  IC50: < 1 µM
[3]
  IC50 at 72 h: < 1 µM

## O=C(/C=C\n1cnc(-c2cc(C(F)(F)F)cc(C(F)(F)F)c2)n1)N1CC(F)(F)C1 [Compound X-3, reference compound]
[2]
  AUC(0-inf): 12300 ng·h/mL
[4]
  AUC(0-inf): 12300 ng·h/mL
CRM1
  IC50: < 1 µM
[3]
  IC50 at 72 h: < 1 µM

## O=P1(N(CCCl)CCCl)NCCCO1 (stereo not drawn) [cyclophosphamide, reference compound]
IMQ-induced psoriasis; Day 7, pre-IMQ/drug administration readings
  Rate of reduction of DAI, % change from 1st dose administration: 0.0%
IMQ-induced psoriasis; Day 10, 4 hr. post-IMQ/drug administration readings
  Rate of reduction of DAI, % change from 1st dose administration: −86.0%

## N.N.[Cl][Pt][Cl] [cisplatin, reference compound]
A549 xenograft tumors
  tumor volume AUC compared to vehicle control (one-way ANOVA): no statistically significant reduction in tumor growth
